# Source: US6008227A, “Process for blocking 5-HT and dopamine uptake with biologically active tropane derivatives” (Wake Forest University, priority 1993, dated 1999)
# “Also recorded” adds a separate entry of the source. Where two headings read alike, the source gives them in different places.
# Legend:
# 5-HT transporter [1] = target: T1, 5-HT transporter (Rattus norvegicus, UniProt P31652); test: Displacement of [^3 H]paroxetine binding to 5-HT transporter sites in rat frontal cortex; set-up: from tissue; host or cells: rat frontal cortex; conditions: for selectivity towards the 5-HT transporter in terms of binding and inhibition, in words: binding and uptake inhibition; for displacement of [^3 H]paroxetine binding, in words: FIG. 2 / text; for selectivity between dopamine and 5-HT transporters, in words: binding assays; for times more potent than cocaine at 5-HT transporter sites: vs cocaine, [^3 H]paroxetine binding
# dopamine transporter [2] = target: T2, dopamine transporter (Rattus norvegicus, UniProt P23977); test: Displacement of [^125 I]RTI-55 binding to dopamine transporters in rat striatal membranes; conditions: for Ki: [^125 I]RTI-55 10-20 pM, rat striatal membranes; for binding ratio: 5-HT K1 / DA K1, higher numbers demonstrate relatively greater dopamine transporter potency; for displacement of [^125 I]RTI-55 binding, in words: FIG. 1
# T2 construct: was used to label dopamine transporters in rat striatal membranes; from tissue; host or cells: rat striatal membranes
# dopamine transporter [3] = target: T2, dopamine transporter; test: Inhibition of [3H]dopamine uptake into dissociated striatal cells from fetal and adult rat brain; format: cell-based; conditions: for uptake ratio: 5-HT uptake IC50 / DA uptake IC50; for inhibition of [3H]dopamine uptake into striatal cells, in words: FIG. 3; for dopamine: 5-HT ratio: regardless of the assay used (binding or uptake)
# 5-HT transporter [4] = target: T1, 5-HT transporter; test: Inhibition of [^3 H]5-HT uptake in dissociated frontal cortex cells from fetal and adult rat brain; format: cell-based; set-up: from tissue; host or cells: rat frontal cortex; conditions: for IC50: frontal cortex cells, fetal and adult rat brain; for blocking [^3 H]5-HT uptake in cortical cells, in words: FIG. 4
# [5] = vs cocaine, [^125 I]RTI-55 binding
# [6] = read-out: [^3 H] paroxetine K1, [^3 H]paroxetine, rat frontal cortex
# T2 sequence (P23977 whole entry): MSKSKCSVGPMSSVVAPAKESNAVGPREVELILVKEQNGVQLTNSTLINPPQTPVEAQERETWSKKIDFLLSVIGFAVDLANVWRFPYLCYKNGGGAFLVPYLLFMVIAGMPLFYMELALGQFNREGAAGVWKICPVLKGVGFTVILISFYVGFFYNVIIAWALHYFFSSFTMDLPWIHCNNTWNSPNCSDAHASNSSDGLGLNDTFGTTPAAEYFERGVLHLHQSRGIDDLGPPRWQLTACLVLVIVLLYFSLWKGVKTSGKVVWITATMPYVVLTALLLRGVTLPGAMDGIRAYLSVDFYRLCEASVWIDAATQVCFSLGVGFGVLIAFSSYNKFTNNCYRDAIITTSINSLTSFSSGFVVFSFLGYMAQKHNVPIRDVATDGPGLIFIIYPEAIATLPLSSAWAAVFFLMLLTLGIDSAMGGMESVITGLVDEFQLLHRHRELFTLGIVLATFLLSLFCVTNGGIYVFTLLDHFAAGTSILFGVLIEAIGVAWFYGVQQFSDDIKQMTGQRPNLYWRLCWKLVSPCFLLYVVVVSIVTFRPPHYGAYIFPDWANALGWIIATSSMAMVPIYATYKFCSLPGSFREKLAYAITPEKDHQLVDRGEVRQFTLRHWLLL
# T1 sequence (P31652 whole entry): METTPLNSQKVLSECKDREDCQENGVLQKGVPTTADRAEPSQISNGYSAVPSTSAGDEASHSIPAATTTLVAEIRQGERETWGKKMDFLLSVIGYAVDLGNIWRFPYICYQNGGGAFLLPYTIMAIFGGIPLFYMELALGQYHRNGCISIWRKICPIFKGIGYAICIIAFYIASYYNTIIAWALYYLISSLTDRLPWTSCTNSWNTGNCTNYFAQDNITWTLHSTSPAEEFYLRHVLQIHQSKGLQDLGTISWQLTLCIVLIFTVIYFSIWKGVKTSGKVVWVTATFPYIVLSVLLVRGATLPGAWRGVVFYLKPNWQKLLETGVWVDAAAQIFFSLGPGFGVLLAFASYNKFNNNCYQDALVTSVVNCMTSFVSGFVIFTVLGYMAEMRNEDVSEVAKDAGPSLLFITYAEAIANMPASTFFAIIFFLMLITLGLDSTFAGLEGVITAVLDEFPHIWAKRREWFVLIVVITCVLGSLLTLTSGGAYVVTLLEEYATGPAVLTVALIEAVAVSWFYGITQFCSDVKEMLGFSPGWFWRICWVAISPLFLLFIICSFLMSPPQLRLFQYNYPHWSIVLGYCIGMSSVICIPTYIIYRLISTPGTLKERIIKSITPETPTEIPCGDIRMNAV
smiles,measurement,setting,value
CC(=O)[C@@H]1[C@@H](c2ccc(F)cc2)C[C@@H]2CC[C@H]1N2C (relative stereo) [WF-1],Ki,5-HT transporter [1],> 10000 nM
same,Ki,dopamine transporter [2],929 ± 160 nM
CC(=O)[C@@H]1[C@@H](c2ccccc2)C[C@@H]2CC[C@H]1N2C (relative stereo) [WF-2],Ki,5-HT transporter [1],> 10000 nM
same,Ki,dopamine transporter [2],7270 ± 1210 nM
CC(=O)[C@@H]1[C@@H](c2ccc(C)cc2)C[C@@H]2CC[C@H]1N2C (relative stereo) [WF-3],Ki,5-HT transporter [1],> 10000 nM
same,Ki,dopamine transporter [2],775 ± 57 nM
CC(=O)[C@H]1[C@@H](c2ccc(C)cc2)C[C@@H]2CC[C@H]1N2C (relative stereo) [WF-4],IC50,dopamine transporter [3],13.8 ± 2.6 nM
same,uptake ratio,dopamine transporter [3],24
same,IC50,5-HT transporter [4],330 ± 75 nM
same,binding ratio,dopamine transporter [2],12.4
same,Ki,dopamine transporter [2],9.8 ± 0.5 nM
COC(=O)[C@@H]1[C@@H](c2ccccc2)C[C@@H]2CC[C@H]1N2C (relative stereo) [WF-6],Ki,dopamine transporter [2],2060 ± 545 nM
CC(=O)[C@H]1[C@@H](c2ccc(F)cc2)C[C@@H]2CC[C@H]1N2C (relative stereo) [WF-7],binding ratio,dopamine transporter [2],12.1
CC(=O)[C@H]1[C@@H](c2cccc3ccccc23)C[C@@H]2CC[C@H]1N2C (relative stereo) [WF-8],IC50,dopamine transporter [3],20.7 ± 7.7 nM
same,IC50,5-HT transporter [4],4.55 nM
CCc1ccc([C@H]2C[C@@H]3CC[C@H]([C@H]2C(C)=O)N3C)cc1 (relative stereo) [WF-9],IC50,dopamine transporter [3],1160 ± 266 nM
same,uptake ratio,dopamine transporter [3],0.0082
same,IC50,5-HT transporter [4],9.5 ± 5.4 nM
same,"selectivity towards the 5-HT transporter in terms of binding and inhibition, in words",5-HT transporter [1],considerable selectivity towards the 5-HT transporter
same,binding ratio,dopamine transporter [2],0.51
same,Ki,dopamine transporter [2],152 ± 24 nM
COC(=O)[C@H]1[C@@H](c2ccccc2)C[C@@H]2CC[C@H]1N2C (relative stereo) [WF-10],Ki,dopamine transporter [2],98.8 ± 12.2 nM
CCC(=O)[C@H]1[C@@H](c2ccc(C)cc2)C[C@@H]2CC[C@H]1N2C (relative stereo) [WF-11],IC50,dopamine transporter [3],2.21 ± 1.7 nM
same,uptake ratio,dopamine transporter [3],140
same,times more potent in inhibiting dopamine uptake than 5-HT uptake,dopamine transporter [3]; uptake assays,140 times
same,IC50,5-HT transporter [4],310 ± 104 nM
same,"displacement of [^3 H]paroxetine binding, in words",5-HT transporter [1],approximately equipotent with cocaine in displacing [^3 H]paroxetine binding
same,"selectivity between dopamine and 5-HT transporters, in words",5-HT transporter [1],relatively more selective for dopamine transporters
same,times more potent than cocaine at 5-HT transporter sites,5-HT transporter [1],twice
same,binding ratio,dopamine transporter [2],15.9
same,Ki,dopamine transporter [2],8.2 ± 1.6 nM
same,times more potent than cocaine in binding to dopamine transporters,dopamine transporter [2]; [5],20 times
CCC(=O)[C@@H]1[C@@H](c2ccc(C)cc2)C[C@@H]2CC[C@H]1N2C (relative stereo) [WF-13],Ki,5-HT transporter [1],> 10000 nM
same,Ki,dopamine transporter [2],764 ± 84 nM
CCC(=O)[C@@H]1[C@@H](CC)C[C@@H]2CC[C@H]1N2C (relative stereo) [WF-14],Ki,5-HT transporter [1],> 10000 nM
same,Ki,dopamine transporter [2],> 50000 nM
CC(=O)[C@@H]1[C@@H](c2cccc3ccccc23)C[C@@H]2CC[C@H]1N2C (relative stereo) [WF-15],Ki,dopamine transporter [2],97 ± 21 nM
CCc1ccc([C@H]2C[C@@H]3CC[C@H]([C@@H]2C(C)=O)N3C)cc1 (relative stereo) [WF-16],Ki,5-HT transporter [1],> 10000 nM
same,Ki,dopamine transporter [2],2290 ± 360 nM
Cc1ccc([C@H]2C[C@@H]3CC[C@H]([C@@H]2C(=O)C(C)C)N3C)cc1 (relative stereo) [WF-17],Ki,5-HT transporter [1],> 10000 nM
same,Ki,dopamine transporter [2],2130 ± 266 nM
CCC(=O)[C@H]1[C@@H](CC)C[C@@H]2CC[C@H]1N2C (relative stereo) [WF-18],Ki,dopamine transporter [2],> 50000 nM
CCC(=O)[C@H]1[C@@H](C2CCCCC2)C[C@@H]2CC[C@H]1N2C (relative stereo) [WF-19],Ki,5-HT transporter [1],> 10000 nM
CCC(=O)[C@@H]1[C@@H](c2ccccc2C)C[C@@H]2CC[C@H]1N2C (relative stereo) [WF-21],Ki,5-HT transporter [1]; [6],> 10000 nM
CCC(=O)[C@H]1[C@@H](c2ccccc2C)C[C@@H]2CC[C@H]1N2C (relative stereo) [WF-22],Ki,5-HT transporter [1]; [6],1060 ± 395 nM
same,binding ratio,dopamine transporter [2],1.30
same,Ki,dopamine transporter [2]; read-out:,814 ± 220 nM
CCC(=O)[C@H]1[C@@H](c2ccc3ccccc3c2)C[C@@H]2CC[C@H]1N2C (relative stereo) [WF-23],IC50,dopamine transporter [3],0.027 ± 0.016 nM
same,uptake ratio,dopamine transporter [3],10.0
same,"inhibition of [3H]dopamine uptake into striatal cells, in words",dopamine transporter [3],the most potent analog in inhibiting dopamine uptake
same,dopamine: 5-HT ratio,dopamine transporter [3],3-4
same,"blocking [^3 H]5-HT uptake in cortical cells, in words",5-HT transporter [4],significantly more potent than cocaine in blocking [^3 H]5-HT uptake
same,IC50,5-HT transporter [4],0.27 nM
same,Ki,5-HT transporter [1],0.63 ± 0.2 nM
same,"displacement of [^3 H]paroxetine binding, in words",5-HT transporter [1],the most potent compounds in displacing [^3 H]paroxetine binding
same,"selectivity between dopamine and 5-HT transporters, in words",5-HT transporter [1],"like cocaine, with little selectivity between the two transporters"
same,times more potent than cocaine at 5-HT transporter sites,5-HT transporter [1],480 times
same,binding ratio,dopamine transporter [2],3.1
same,Ki,dopamine transporter [2],0.2 ± 0.04 nM
same,times more potent than cocaine at both transporters,"dopamine transporter [2]; vs cocaine, dopamine and 5-HT transporter binding",500-800 times
CCC(=O)[C@@H]1[C@@H](c2ccc3ccccc3c2)C[C@@H]2CC[C@H]1N2C (relative stereo) [WF-24],IC50,dopamine transporter [3],5.9 ± 2.4 nM
same,binding ratio,dopamine transporter [2],6.53
same,Ki,dopamine transporter [2],2.51 ± 0.82 nM
CCC(=O)[C@H]1[C@@H](c2ccc(C(C)(C)C)cc2)C[C@@H]2CC[C@H]1N2C (relative stereo) [WF-26],binding ratio,dopamine transporter [2],0.84
CCC(=O)[C@H]1[C@@H](c2ccc(C)c3ccccc23)C[C@@H]2CC[C@H]1N2C (relative stereo) [WF-27],IC50,dopamine transporter [3],260 ± 98 nM
same,IC50,5-HT transporter [4],14.6 nM
same,"selectivity towards the 5-HT transporter in terms of binding and inhibition, in words",5-HT transporter [1],considerable selectivity towards the 5-HT transporter
same,binding ratio,dopamine transporter [2],0.358
same,Ki,dopamine transporter [2],25.1 ± 0.5 nM
CCC(=O)[C@H]1[C@@H](c2cccc3ccccc23)C[C@@H]2CC[C@H]1N2C (relative stereo) [WF-30],IC50,dopamine transporter [3],3.66 ± 1.91 nM
same,uptake ratio,dopamine transporter [3],1.46
same,IC50,5-HT transporter [4],5.43 nM
same,binding ratio,dopamine transporter [2],3.91
same,Ki,dopamine transporter [2],5.34 ± 1.27 nM
CCC(=O)[C@H]1[C@@H](c2ccc(C(C)C)cc2)C[C@@H]2CC[C@H]1N2C (relative stereo) [WF-31],"inhibition of [3H]dopamine uptake into striatal cells, in words",dopamine transporter [3],considerably less potent in blocking [3H]dopamine uptake
same,IC50,"dopamine transporter [3]; read-out: DA uptake IC50, striatal cells, fetal and adult rat brain",5840 ± 2600 nM
same,"blocking [^3 H]5-HT uptake in cortical cells, in words",5-HT transporter [4],significantly more potent than cocaine in blocking [^3 H]5-HT uptake
same,IC50,5-HT transporter [4],46.9 nM
same,times more potent in inhibiting 5-HT uptake than dopamine uptake,5-HT transporter [4]; uptake assays,120 times
same,"displacement of [^3 H]paroxetine binding, in words",5-HT transporter [1],significantly more potent in displacing [^3 H]paroxetine than cocaine
same,"selectivity towards the 5-HT transporter in terms of binding and inhibition, in words",5-HT transporter [1],considerable selectivity towards the 5-HT transporter
same,Ki,5-HT transporter [1]; [6],54.5 ± 8.9 nM
same,times more potent than cocaine at 5-HT transporter sites,5-HT transporter [1],8 times
same,binding ratio,dopamine transporter [2],0.089
same,"displacement of [^125 I]RTI-55 binding, in words",dopamine transporter [2],less potent in displacing [^125 I]RTI-55 than cocaine
same,Ki,dopamine transporter [2]; read-out:,615 ± 98 nM
same,times less potent than cocaine at dopamine transporters,dopamine transporter [2]; [5],2.5 times
CC(=O)[C@H]1[C@@H](c2ccc3ccccc3c2)C[C@@H]2CC[C@H]1N2C (relative stereo) [WF-32],binding ratio,dopamine transporter [2],4.27
same,Ki,dopamine transporter [2],0.248 ± 0.15 nM
CCC(=O)[C@H]1[C@@H](c2ccc3cc(OC)ccc3c2)C[C@@H]2CC[C@H]1N2C (relative stereo) [WF-33],"displacement of [^3 H]paroxetine binding, in words",5-HT transporter [1],the most potent compounds in displacing [^3 H]paroxetine binding
same,times less potent than WF-23 in displacing [^3 H]paroxetine binding,5-HT transporter [1]; vs WF-23,4 times
same,times more potent than cocaine at 5-HT transporter sites,5-HT transporter [1],140 times
same,"displacement of [^125 I]RTI-55 binding, in words",dopamine transporter [2],the most potent of these compounds; also recorded: equipotent in displacing [^125 I]RTI-55 binding
CCC(=O)[C@@H]1[C@@H](c2ccc3cc(OC)ccc3c2)C[C@@H]2CC[C@H]1N2C (relative stereo) [WF-34],Ki,5-HT transporter [1],206 ± 81 nM
same,binding ratio,dopamine transporter [2],3.76
same,Ki,dopamine transporter [2],54.7 ± 15 nM
CCC(=O)[C@H]1[C@@H](c2ccc(-c3ccccc3)cc2)C[C@@H]2CC[C@H]1N2C (relative stereo) [WF-35],binding ratio,dopamine transporter [2],1.88
"CCC(=O)C1C(c2ccc3ccccc3c2)CC2CCC1N2C (single isomer, unassigned) [WF-23(1)]","selectivity between dopamine and 5-HT transporters, in words",5-HT transporter [1],the same as the racemic mixture of WF-23
same,binding ratio,dopamine transporter [2],4.2
same,Ki,dopamine transporter [2],113 ± 26 nM
"CCC(=O)C1C(c2ccc3ccccc3c2)CC2CCC1N2C (single isomer, unassigned) [WF-23(2)]",dopamine: 5-HT ratio,dopamine transporter [3],3-4
same,Ki,5-HT transporter [1],0.127 ± 0.05 nM
same,"displacement of [^3 H]paroxetine binding, in words",5-HT transporter [1],also potent vs. [^3 H]paroxetine binding
same,"selectivity between dopamine and 5-HT transporters, in words",5-HT transporter [1],the same as the racemic mixture of WF-23
same,IC50,dopamine transporter [2],~0.03 nM
same,binding ratio,dopamine transporter [2],3.96
same,Ki,dopamine transporter [2],0.032 ± 0.007 nM
